Reference: patent US20250320193A1, “OXOISOINDOLINYL SUBSTITUTED PIPERIDINEDIONE DERIVATIVE AND USE THEREOF” (GLUETACS THERAPEUTICS (SHANGHAI) CO., LTD., priority 2022, published 2025)

Tests used:
[1] = molecular target: human Cereblon WT GST-tagged protein (Homo sapiens (Human), UniProt Q96SW2); test: CRBN-binding affinity, HTRF (CEREBLON BINDING kit, CISBIO); settings: HTRF inhibitory activity
In short: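 HTRF competition format: test compound displaces Thalidomide-Red from GST-tagged human Cereblon WT, detected with a Eu-labelled anti-GST antibody. Percent CRBN binding inhibition was derived from the 620 nm signal, normalized to solvent-control and protein-free blank wells.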

IKZF3 = IKZF3 (Homo sapiens (Human), UniProt Q96SW2+Q9UKT9); test: Western blot, substrate protein expression in hPBMC: IKZF3; assay type: cell-based; settings: hPBMC, compound 500 nM, 24 hours, Western blot
IKZF3, sequence (Q9UKT9 whole entry): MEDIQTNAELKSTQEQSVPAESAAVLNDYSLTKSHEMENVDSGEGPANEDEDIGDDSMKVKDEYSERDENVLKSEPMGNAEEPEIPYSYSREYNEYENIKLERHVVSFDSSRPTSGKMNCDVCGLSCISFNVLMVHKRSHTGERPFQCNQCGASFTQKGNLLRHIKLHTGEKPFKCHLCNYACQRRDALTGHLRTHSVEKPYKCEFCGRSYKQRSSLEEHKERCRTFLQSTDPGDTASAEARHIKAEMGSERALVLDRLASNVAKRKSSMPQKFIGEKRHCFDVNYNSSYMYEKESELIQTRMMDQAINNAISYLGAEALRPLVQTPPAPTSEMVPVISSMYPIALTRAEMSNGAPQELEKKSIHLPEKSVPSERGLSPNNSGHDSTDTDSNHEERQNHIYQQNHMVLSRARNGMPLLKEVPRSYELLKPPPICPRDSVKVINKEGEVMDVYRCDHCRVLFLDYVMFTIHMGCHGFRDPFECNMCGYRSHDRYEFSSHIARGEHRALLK
IKZF3, sequence (Q96SW2 whole entry): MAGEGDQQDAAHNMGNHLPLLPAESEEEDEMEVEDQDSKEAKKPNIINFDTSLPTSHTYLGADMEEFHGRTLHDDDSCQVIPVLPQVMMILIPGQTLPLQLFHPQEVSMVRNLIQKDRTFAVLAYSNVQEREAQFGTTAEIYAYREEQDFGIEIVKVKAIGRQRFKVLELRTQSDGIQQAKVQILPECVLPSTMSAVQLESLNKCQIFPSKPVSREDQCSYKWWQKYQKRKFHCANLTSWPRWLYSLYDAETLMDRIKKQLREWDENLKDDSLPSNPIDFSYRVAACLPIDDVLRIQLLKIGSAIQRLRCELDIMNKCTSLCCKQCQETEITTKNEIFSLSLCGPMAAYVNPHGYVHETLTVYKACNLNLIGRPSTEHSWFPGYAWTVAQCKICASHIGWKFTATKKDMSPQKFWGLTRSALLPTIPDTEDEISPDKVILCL
IKZF3, sequence (Q16531 whole entry partner): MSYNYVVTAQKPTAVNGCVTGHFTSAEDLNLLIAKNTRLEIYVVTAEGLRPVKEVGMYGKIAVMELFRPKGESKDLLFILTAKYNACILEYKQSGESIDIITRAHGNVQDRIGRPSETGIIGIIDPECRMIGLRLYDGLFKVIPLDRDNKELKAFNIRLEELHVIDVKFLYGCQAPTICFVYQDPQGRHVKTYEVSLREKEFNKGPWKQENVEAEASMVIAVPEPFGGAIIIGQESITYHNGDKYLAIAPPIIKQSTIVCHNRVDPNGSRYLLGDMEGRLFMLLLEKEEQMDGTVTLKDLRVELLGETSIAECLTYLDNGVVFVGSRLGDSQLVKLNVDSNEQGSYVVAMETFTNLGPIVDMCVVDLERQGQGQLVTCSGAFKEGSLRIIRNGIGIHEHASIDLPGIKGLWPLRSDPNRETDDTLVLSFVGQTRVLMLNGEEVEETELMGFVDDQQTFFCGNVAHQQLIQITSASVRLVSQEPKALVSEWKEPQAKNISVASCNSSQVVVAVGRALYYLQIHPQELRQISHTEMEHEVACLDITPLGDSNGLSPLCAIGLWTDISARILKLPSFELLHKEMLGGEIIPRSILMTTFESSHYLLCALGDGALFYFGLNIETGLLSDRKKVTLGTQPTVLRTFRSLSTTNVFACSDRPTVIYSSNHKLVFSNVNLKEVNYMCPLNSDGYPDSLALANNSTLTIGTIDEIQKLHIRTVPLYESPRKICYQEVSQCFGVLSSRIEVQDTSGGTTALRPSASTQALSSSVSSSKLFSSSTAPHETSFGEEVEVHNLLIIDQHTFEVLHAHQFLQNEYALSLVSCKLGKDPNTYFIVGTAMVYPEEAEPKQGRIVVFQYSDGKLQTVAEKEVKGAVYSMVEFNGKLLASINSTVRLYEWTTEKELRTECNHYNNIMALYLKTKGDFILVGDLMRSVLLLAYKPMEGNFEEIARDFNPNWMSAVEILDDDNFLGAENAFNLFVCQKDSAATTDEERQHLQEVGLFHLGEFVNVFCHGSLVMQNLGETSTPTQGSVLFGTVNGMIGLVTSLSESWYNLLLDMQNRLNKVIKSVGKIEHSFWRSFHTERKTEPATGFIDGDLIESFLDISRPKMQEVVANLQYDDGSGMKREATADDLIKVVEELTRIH
In short: (§1)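 hPBMC, 1×10^6 cells/mL, 24 h compound exposure; RIPA lysis, BCA protein assay, SDS-PAGE, NC membrane immunoblot. Densitometry vs internal control → % protein remaining; degradation % = 100% − remaining; DC50 = conc. at 50% of DMSO band signal.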

IKZF1 = IKZF1 (Homo sapiens (Human), UniProt Q13422+Q96SW2); test: Western blot, substrate protein expression in hPBMC: IKZF1; assay type: cell-based; settings: hPBMC, compound 500 nM, 24 hours, Western blot
IKZF1, sequence (Q13422 whole entry): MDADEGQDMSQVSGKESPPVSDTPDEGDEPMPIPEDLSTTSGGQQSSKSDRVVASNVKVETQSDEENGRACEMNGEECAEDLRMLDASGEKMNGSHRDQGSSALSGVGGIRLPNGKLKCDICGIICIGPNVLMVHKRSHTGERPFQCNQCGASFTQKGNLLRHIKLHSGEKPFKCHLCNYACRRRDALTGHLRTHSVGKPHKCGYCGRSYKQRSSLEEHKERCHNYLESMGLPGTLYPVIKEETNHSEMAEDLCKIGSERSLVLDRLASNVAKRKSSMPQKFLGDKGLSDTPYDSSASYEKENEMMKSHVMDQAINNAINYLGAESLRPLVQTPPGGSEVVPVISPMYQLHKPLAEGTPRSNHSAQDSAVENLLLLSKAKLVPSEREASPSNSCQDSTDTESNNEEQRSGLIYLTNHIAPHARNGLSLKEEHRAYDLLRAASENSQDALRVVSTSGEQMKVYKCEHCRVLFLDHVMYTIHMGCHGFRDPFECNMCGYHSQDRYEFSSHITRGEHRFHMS
IKZF1, sequence (Q96SW2 whole entry): as the sequence (Q96SW2 whole entry) above
IKZF1, sequence (Q16531 whole entry partner): as the sequence (Q16531 whole entry partner) above
In short: as §1

GSPT1 = GSPT1 (Homo sapiens (Human), UniProt P15170+Q96SW2); test: Western blot, substrate protein expression in hPBMC: GSPT1; assay type: cell-based; settings: hPBMC, compound 500 nM, 24 hours, Western blot
GSPT1, sequence (P15170 whole entry): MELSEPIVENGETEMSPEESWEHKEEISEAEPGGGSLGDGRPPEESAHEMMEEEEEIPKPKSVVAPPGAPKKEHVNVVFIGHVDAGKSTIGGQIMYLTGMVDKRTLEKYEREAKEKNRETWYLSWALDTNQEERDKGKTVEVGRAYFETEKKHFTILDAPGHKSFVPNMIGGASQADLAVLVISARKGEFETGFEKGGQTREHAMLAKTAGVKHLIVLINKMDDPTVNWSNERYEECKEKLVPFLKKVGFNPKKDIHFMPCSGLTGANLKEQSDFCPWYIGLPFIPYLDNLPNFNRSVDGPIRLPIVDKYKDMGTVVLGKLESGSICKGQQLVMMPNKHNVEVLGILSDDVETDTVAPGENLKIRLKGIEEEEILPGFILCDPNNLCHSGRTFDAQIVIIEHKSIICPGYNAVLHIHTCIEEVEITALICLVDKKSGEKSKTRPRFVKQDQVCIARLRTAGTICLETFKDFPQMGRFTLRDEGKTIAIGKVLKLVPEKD
GSPT1, sequence (Q96SW2 whole entry): as the sequence (Q96SW2 whole entry) above
GSPT1, sequence (Q16531 whole entry partner): as the sequence (Q16531 whole entry partner) above
In short: as §1

human Cereblon WT GST-tagged protein, sequence (Q96SW2 whole entry): as the sequence (Q96SW2 whole entry) above

Row | Compound | IC50 [1] [nM] | substrate protein remaining % IKZF3 (IKZF3) | substrate protein remaining % IKZF1 (IKZF1) | substrate protein remaining % GSPT1 (GSPT1)
1 | O=C1CCC(N2Cc3cc(C(=O)N4CCC(N(c5ccccc5)c5ccccn5)CC4)ccc3C2=O)C(=O)N1 (stereo not shown) [GT-05923, 3-(1-oxo-5-(4-(phenyl(pyridin-2-yl)amino)piperidine-1-carbonyl)isoindolin-2-yl)piperidine-2,6-dione] | < 500 | B (B represents substrate protein remaining % > 50%) | B (B represents substrate protein remaining % > 50%) | A (A represents 0% ≤ substrate protein remaining % ≤ 50%)
2 | O=C1CCC(N2Cc3cc(CN4CCCN(C(c5ccccc5)c5ccccc5)CC4)c(F)cc3C2=O)C(=O)N1 (stereo not shown) [GT-05738, 3-(5-((4-benzhydryl-1,4-diazepan-1-yl)methyl)-6-fluoro-1-oxoisoindolin-2-yl)piperidine-2,6-dione] | 1000 to 1900 | B (B represents substrate protein remaining % > 50%) | B (B represents substrate protein remaining % > 50%) | A (A represents 0% ≤ substrate protein remaining % ≤ 50%)
3 | C[C@@H]1CN(C(c2ccccc2)c2ccccc2)CCN1C(=O)c1ccc2c(c1)CN(C1CCC(=O)NC1=O)C2=O (stereo partly drawn) [GT-06092, 3-(5-((R)-4-benzhydryl-2-methylpiperazine-1-carbonyl)-1-oxoisoindolin-2-yl)piperidine-2,6-dione] | < 500 | B (B represents substrate protein remaining % > 50%) | B (B represents substrate protein remaining % > 50%) | A (A represents 0% ≤ substrate protein remaining % ≤ 50%)
4 | O=C1CCC(N2Cc3cc(CN4CC5CN(C(c6ccccc6)c6ccccc6)CC5C4)cc(F)c3C2=O)C(=O)N1 (stereo not shown) [GT-06045, 3-(5-((5-benzhydrylhexahydropyrrolo[3,4-c]pyrrol-2 (1H)-yl)methyl)-7-fluoro-1-oxoisoindolin-2-yl)piperidine-2,6-dione] | < 500 | B (B represents substrate protein remaining % > 50%) | B (B represents substrate protein remaining % > 50%) | A (A represents 0% ≤ substrate protein remaining % ≤ 50%)
5 | O=C1CCC(N2Cc3c(ccc(CN4C5CCC4CN(C(c4ccccc4)c4ccccc4)C5)c3F)C2=O)C(=O)N1 (stereo not shown) [GT-03838, 3-(5-((3-benzhydryl-3,8-diazabicyclo[3.2.1]octan-8-yl)methyl)-4-fluoro-1-oxoisoindolin-2-yl)piperidine-2,6-dione] | 500 to 1000 | A (A represents 0% ≤ substrate protein remaining % ≤ 50%) | A (A represents 0% ≤ substrate protein remaining % ≤ 50%) | A (A represents 0% ≤ substrate protein remaining % ≤ 50%)
6 | O=C1CCC(N2Cc3c(ccc(CN4CCC5(CCN(C(c6ccccc6)c6ccccc6)CC5)C4)c3F)C2=O)C(=O)N1 (stereo not shown) [GT-05970, 3-(5-((8-benzhydryl-2,8-diazaspiro[4.5]decan-2-yl)methyl)-4-fluoro-1-oxoisoindolin-2-yl)piperidine-2,6-dione] | 1000 to 1900 | B (B represents substrate protein remaining % > 50%) | B (B represents substrate protein remaining % > 50%) | A (A represents 0% ≤ substrate protein remaining % ≤ 50%)
7 | O=C1CCC(N2C(=O)c3ccc(CN4CCN(C(c5ccccc5)c5cccnc5)CC4)cc3C2=O)C(=O)N1 (stereo not shown) [GT-06114, 2-(2,6-dioxopiperidin-3-yl)-5-((4-(phenyl(pyridin-3-yl)methyl)piperazin-1-yl)methyl) isoindoline-1,3-dione] | 1000 to 1900 | B (B represents substrate protein remaining % > 50%) | B (B represents substrate protein remaining % > 50%) | A (A represents 0% ≤ substrate protein remaining % ≤ 50%)
8 | C[C@@H]1CN(C(c2ccccc2)c2ccccc2)CCN1Cc1cc2c(cc1F)C(=O)N(C1CCC(=O)NC1=O)C2 (stereo partly drawn) [GT-06046, 3-(5-(((R)-4-benzhydryl-2-methylpiperazin-1-yl)methyl)-6-fluoro-1-oxoisoindolin-2-yl)piperidine-2,6-dione] | 500 to 1000 | B (B represents substrate protein remaining % > 50%) | B (B represents substrate protein remaining % > 50%) | A (A represents 0% ≤ substrate protein remaining % ≤ 50%)

The next lines start with results.

Row | IC50 [1] [nM] | Compound | substrate protein remaining % IKZF3 (IKZF3) | substrate protein remaining % IKZF1 (IKZF1) | substrate protein remaining % GSPT1 (GSPT1)
9 | 500 to 1000 | O=C1CCC(N2Cc3cc(C(=O)N4CCN(C(c5ccccc5)c5ccccc5)CC4C(F)(F)F)ccc3C2=O)C(=O)N1 (stereo not shown) [GT-06071, 3-(5-(4-benzhydryl-2-(trifluoromethyl)piperazine-1-carbonyl)-1-oxoisoindolin-2-yl)piperidine-2,6-dione] | B (B represents substrate protein remaining % > 50%) | B (B represents substrate protein remaining % > 50%) | A (A represents 0% ≤ substrate protein remaining % ≤ 50%)
10 | 500 to 1000 | O=C1CCC(N2C(=O)c3ccc(C(=O)N4CCN(C(c5ccccc5F)c5ccccc5F)CC4)cc3C2=O)C(=O)N1 (stereo not shown) [GT-06141, 5-(4-(bis(2-fluorophenyl)methyl)piperazine-1-carbonyl)-2-(2,6-dioxopiperidin-3-yl) isoindoline-1,3-dione] | B (B represents substrate protein remaining % > 50%) | B (B represents substrate protein remaining % > 50%) | A (A represents 0% ≤ substrate protein remaining % ≤ 50%)
11 | 1000 to 1900 | O=C1CCC(N2C(=O)c3ccc(CN4CC5CCC4CN5C(c4ccccc4)c4ccccc4)cc3C2=O)C(=O)N1 (stereo not shown) [GT-05730, 5-((5-benzhydryl-2,5-diazabicyclo[2.2.2]octan-2-yl)methyl)-2-(2,6-dioxopiperidin-3-yl) isoindoline-1,3-dione] | B (B represents substrate protein remaining % > 50%) | B (B represents substrate protein remaining % > 50%) | A (A represents 0% ≤ substrate protein remaining % ≤ 50%)
12 | 500 to 1000 | O=C1CCC(N2Cc3c(C(=O)N4CCN(C(c5ccccc5)c5ccccn5)CC4)cccc3C2=O)C(=O)N1 (stereo not shown) [GT-05929, 3-(1-oxo-4-(4-(phenyl(pyridin-2-yl)methyl)piperazine-1-carbonyl)isoindolin-2-yl)piperidine-2,6-dione] | A (A represents 0% ≤ substrate protein remaining % ≤ 50%) | A (A represents 0% ≤ substrate protein remaining % ≤ 50%) | A (A represents 0% ≤ substrate protein remaining % ≤ 50%)
13 | < 500 | O=C1CCC(N2Cc3cc(C(=O)N4CCN(C(c5cccc(F)c5)c5cccc(F)c5)CC4)cc(F)c3C2=O)C(=O)N1 (stereo not shown) [GT-06147, 3-(5-(4-(bis(3-fluorophenyl)methyl)piperazine-1-carbonyl)-7-fluoro-1-oxoisoindolin-2-yl)piperidine-2,6-dione] | B (B represents substrate protein remaining % > 50%) | B (B represents substrate protein remaining % > 50%) | A (A represents 0% ≤ substrate protein remaining % ≤ 50%)
